Results taken from ChEMBL document CHEMBL2440076, “New triarylpyrazoles as broad-spectrum anticancer agents: design, synthesis, and biological evaluation” (Eur J Med Chem, 2013).

Legend:
Type in all cases: functional
[1] = tested on: SK-OV-3; assay: Growth inhibition of human SKOV3 cells assessed as cell growth at 10^-6 M after 48 hrs by sulforhodamine B assay; conditions: SK-OV-3, 48 h, read-out: Activity
[2] = tested on: M14; assay: Growth inhibition of human M14 cells assessed as cell growth at 10^-8 M after 48 hrs by sulforhodamine B assay; conditions: M14, 48 h, read-out: Activity
[3] = tested on: DU-145; assay: Growth inhibition of human DU145 cells assessed as cell growth at 10^-6 M after 48 hrs by sulforhodamine B assay; conditions: DU-145, 48 h, read-out: Activity
[4] = tested on: SK-MEL-2; assay: Growth inhibition of human SK-MEL-2 cells assessed as cell growth at 10^-7 M after 48 hrs by sulforhodamine B assay; conditions: SK-MEL-2, 48 h, read-out: Activity
[5] = tested on: T47D; assay: Growth inhibition of human T47D cells assessed as cell growth at 10^-6 M after 48 hrs by sulforhodamine B assay; conditions: read-out: Activity
[6] = tested on: RXF 393; assay: Growth inhibition of human RXF393 cells assessed as cell growth at 10^-7 M after 48 hrs by sulforhodamine B assay; conditions: RXF 393, 48 h, read-out: Activity
[7] = tested on: SF-268; assay: Growth inhibition of human SF268 cells assessed as cell growth at 10^-4 M after 48 hrs by sulforhodamine B assay; conditions: SF-268, 48 h, read-out: Activity
[8] = tested on: NCI-H23; assay: Growth inhibition of human NCI-H23 cells assessed as cell growth at 10^-8 M after 48 hrs by sulforhodamine B assay; conditions: NCI-H23, 48 h, read-out: Activity
[9] = tested on: SK-MEL-2; assay: Growth inhibition of human SK-MEL-2 cells assessed as cell growth at 10^-4 M after 48 hrs by sulforhodamine B assay; conditions: SK-MEL-2, 48 h, read-out: Activity
[10] = tested on: SR; assay: Growth inhibition of human SR cells assessed as cell growth at 10^-4 M after 48 hrs by sulforhodamine B assay; conditions: read-out: Activity
[11] = tested on: DU-145; assay: Growth inhibition of human DU145 cells assessed as cell growth at 10^-5 M after 48 hrs by sulforhodamine B assay; conditions: DU-145, 48 h, read-out: Activity
[12] = tested on: MDA-MB-231; assay: Growth inhibition of human MDA-MB-231 cells assessed as cell growth at 10^-8 M after 48 hrs by sulforhodamine B assay; conditions: MDA-MB-231, 48 h, read-out: Activity
[13] = tested on: SF-268; assay: Growth inhibition of human SF268 cells assessed as cell growth at 10^-8 M after 48 hrs by sulforhodamine B assay; conditions: SF-268, 48 h, read-out: Activity
[14] = tested on: Malme-3M; assay: Growth inhibition of human MALME-3M cells assessed as cell growth at 10^-8 M after 48 hrs by sulforhodamine B assay; conditions: read-out: Activity
[15] = tested on: MCF7; assay: Growth inhibition of human MCF7 cells assessed as cell growth at 10^-4 M after 48 hrs by sulforhodamine B assay; conditions: MCF7, 48 h, read-out: Activity
[16] = tested on: OVCAR-5; assay: Growth inhibition of human OVCAR5 cells assessed as cell growth at 10^-8 M after 48 hrs by sulforhodamine B assay; conditions: OVCAR-5, 48 h, read-out: Activity
[17] = tested on: UACC-62; assay: Growth inhibition of human UACC62 cells assessed as cell growth at 10^-8 M after 48 hrs by sulforhodamine B assay; conditions: UACC-62, 48 h, read-out: Activity
[18] = tested on: ACHN; assay: Growth inhibition of human ACHN cells assessed as cell growth at 10^-7 M after 48 hrs by sulforhodamine B assay; conditions: read-out: Activity
[19] = tested on: SNB-75; assay: Growth inhibition of human SNB75 cells assessed as cell growth at 10^-4 M after 48 hrs by sulforhodamine B assay; conditions: SNB-75, 48 h, read-out: Activity
[20] = tested on: MDA-MB-468; assay: Growth inhibition of human MDA-MB-468 cells assessed as cell growth at 10^-7 M after 48 hrs by sulforhodamine B assay; conditions: MDA-MB-468, 48 h, read-out: Activity
[21] = tested on: Malme-3M; assay: Growth inhibition of human MALME-3M cells assessed as cell growth at 10^-7 M after 48 hrs by sulforhodamine B assay; conditions: read-out: Activity
[22] = tested on: K562; assay: Growth inhibition of human K562 cells assessed as cell growth at 10^-5 M after 48 hrs by sulforhodamine B assay; conditions: K562, 48 h, read-out: Activity
[23] = tested on: SR; assay: Growth inhibition of human SR cells assessed as cell growth at 10^-5 M after 48 hrs by sulforhodamine B assay; conditions: read-out: Activity
[24] = tested on: UACC-257; assay: Growth inhibition of human UACC257 cells assessed as cell growth at 10^-8 M after 48 hrs by sulforhodamine B assay; conditions: UACC-257, 48 h, read-out: Activity
[25] = tested on: SF-295; assay: Growth inhibition of human SF295 cells assessed as cell growth at 10^-7 M after 48 hrs by sulforhodamine B assay; conditions: SF-295, 48 h, read-out: Activity
[26] = tested on: MOLT-4; assay: Growth inhibition of human MOLT4 cells assessed as cell growth at 10^-5 M after 48 hrs by sulforhodamine B assay; conditions: MOLT-4, 48 h, read-out: Activity
[27] = tested on: LOX IMVI; assay: Growth inhibition of human LOXIMVI cells assessed as cell growth at 10^-7 M after 48 hrs by sulforhodamine B assay; conditions: read-out: Activity
[28] = tested on: TK-10; assay: Growth inhibition of human TK10 cells assessed as cell growth at 10^-4 M after 48 hrs by sulforhodamine B assay; conditions: TK-10, 48 h, read-out: Activity
[29] = tested on: A549; assay: Growth inhibition of human A549/ATCC cells assessed as cell growth at 10^-8 M after 48 hrs by sulforhodamine B assay; conditions: A549, 48 h, read-out: Activity
[30] = tested on: SN12C; assay: Growth inhibition of human SN12C cells assessed as cell growth at 10^-7 M after 48 hrs by sulforhodamine B assay; conditions: read-out: Activity
[31] = tested on: MOLT-4; assay: Growth inhibition of human MOLT4 cells assessed as cell growth at 10^-8 M after 48 hrs by sulforhodamine B assay; conditions: MOLT-4, 48 h, read-out: Activity
[32] = tested on: K562; assay: Growth inhibition of human K562 cells assessed as cell growth at 10^-8 M after 48 hrs by sulforhodamine B assay; conditions: K562, 48 h, read-out: Activity
[33] = tested on: SN12C; assay: Growth inhibition of human SN12C cells assessed as cell growth at 10^-4 M after 48 hrs by sulforhodamine B assay; conditions: read-out: Activity
[34] = tested on: UO-31; assay: Growth inhibition of human UO31 cells assessed as cell growth at 10^-4 M after 48 hrs by sulforhodamine B assay; conditions: UO-31, 48 h, read-out: Activity
[35] = tested on: IGROV-1; assay: Growth inhibition of human IGROV1 cells assessed as cell growth at 10^-8 M after 48 hrs by sulforhodamine B assay; conditions: IGROV-1, 48 h, read-out: Activity
[36] = tested on: SK-OV-3; assay: Growth inhibition of human SKOV3 cells assessed as cell growth at 10^-8 M after 48 hrs by sulforhodamine B assay; conditions: SK-OV-3, 48 h, read-out: Activity
[37] = tested on: SK-OV-3; assay: Growth inhibition of human SKOV3 cells assessed as cell growth at 10^-7 M after 48 hrs by sulforhodamine B assay; conditions: SK-OV-3, 48 h, read-out: Activity
[38] = tested on: NCI-H226; assay: Growth inhibition of human NCI-H226 cells assessed as cell growth at 10^-6 M after 48 hrs by sulforhodamine B assay; conditions: NCI-H226, 48 h, read-out: Activity
[39] = tested on: ACHN; assay: Growth inhibition of human ACHN cells assessed as cell growth at 10^-4 M after 48 hrs by sulforhodamine B assay; conditions: read-out: Activity

Row | SMILES | growth at 1 µM [1] | growth at 0.01 µM [2] | growth at 1 µM [3] | growth at 0.1 µM [4] | growth at 1 µM [5] | growth at 0.1 µM [6] | growth at 100 µM [7] | growth at 0.01 µM [8] | growth at 100 µM [9] | growth at 100 µM [10] | growth at 10 µM [11] | growth at 0.01 µM [12] | growth at 0.01 µM [13] | growth at 0.01 µM [14] | growth at 100 µM [15] | growth at 0.01 µM [16] | growth at 0.01 µM [17] | growth at 0.1 µM [18] | growth at 100 µM [19] | growth at 0.1 µM [20] | also measured
1 | COc1cc(-c2nn(-c3cccc(NC(=O)c4ccccc4)c3)cc2-c2ccncc2)ccc1Cl | 51% | 95% | 44% | 90% | 58% | 113% | 14% | 92% | -30% | 12% | 13% | 103% | 95% | 98% | 7% | 95% | 98% | 95% | 11% | 89% | growth at 0.1 µM [21]: 82%; growth at 10 µM [22]: 10%; growth at 10 µM [23]: 2%; growth at 0.01 µM [24]: 93%; growth at 0.1 µM [25]: 90%; growth at 10 µM [26]: 18%; growth at 0.1 µM [27]: 94%; growth at 100 µM [28]: 23%; growth at 0.01 µM [29]: 96%; growth at 0.1 µM [30]: 98%; growth at 0.01 µM [31]: 102%; growth at 0.01 µM [32]: 102%; growth at 100 µM [33]: 36%; growth at 100 µM [34]: 24%; growth at 0.01 µM [35]: 105%; growth at 0.01 µM [36]: 97%; growth at 0.1 µM [37]: 95%; growth at 1 µM [38]: 64%; growth at 100 µM [39]: 27%
2 | COc1cc(-c2nn(-c3cccc(NC(=O)c4ccc(N5CCOCC5)c(C(F)(F)F)c4)c3)cc2-c2ccncc2)ccc1Cl | 24% | 98% | 16% | 73% | 42% | 78% | 10% | 97% | -34% | 6% | 13% | 95% | 97% | 103% | 8% | 95% | 95% | 83% | 2% | 71% | growth at 0.1 µM [21]: 52%; growth at 10 µM [22]: 2%; growth at 10 µM [23]: 4%; growth at 0.01 µM [24]: 95%; growth at 0.1 µM [25]: 60%; growth at 10 µM [26]: 9%; growth at 0.1 µM [27]: 78%; growth at 100 µM [28]: -7%; growth at 0.01 µM [29]: 94%; growth at 0.1 µM [30]: 90%; growth at 0.01 µM [31]: 109%; growth at 0.01 µM [32]: 99%; growth at 100 µM [33]: 11%; growth at 100 µM [34]: -13%; growth at 0.01 µM [35]: 111%; growth at 0.01 µM [36]: 103%; growth at 0.1 µM [37]: 80%; growth at 1 µM [38]: 28%; growth at 100 µM [39]: 2%
